ChEMBL document CHEMBL2073748, “Na(+)-dependent carnitine transport by organic cation transporter (OCTN2): its pharmacological and toxicological relevance” (J Pharmacol Exp Ther, 1999)

Key:
Assay type in all cases: functional, cell-based
[1] = target: T1, Organic cation/carnitine transporter 2 (Homo sapiens, UniProt O76082); test: TP_TRANSPORTER: inhibition of Carnitine uptake (Carnitine: 0.010? uM, NMN: 500 uM) in OCTN2-expressing HEK293 cells; conditions: hek293, 500 µM
T1 sequence (O76082 whole entry): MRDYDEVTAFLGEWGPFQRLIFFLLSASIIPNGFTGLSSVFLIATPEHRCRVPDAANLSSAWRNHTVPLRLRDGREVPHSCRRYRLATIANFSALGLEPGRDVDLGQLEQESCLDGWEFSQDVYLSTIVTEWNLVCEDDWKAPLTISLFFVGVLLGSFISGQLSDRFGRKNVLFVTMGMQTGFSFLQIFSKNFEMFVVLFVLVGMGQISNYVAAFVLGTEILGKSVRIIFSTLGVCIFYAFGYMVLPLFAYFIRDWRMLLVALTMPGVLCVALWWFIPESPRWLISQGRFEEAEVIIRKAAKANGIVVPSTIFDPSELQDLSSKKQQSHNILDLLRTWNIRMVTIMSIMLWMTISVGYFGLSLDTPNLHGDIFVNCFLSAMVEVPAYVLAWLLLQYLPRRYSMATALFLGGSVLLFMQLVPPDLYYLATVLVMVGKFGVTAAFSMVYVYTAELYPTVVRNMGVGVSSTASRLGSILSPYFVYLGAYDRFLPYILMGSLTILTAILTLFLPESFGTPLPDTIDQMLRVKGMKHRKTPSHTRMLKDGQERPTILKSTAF

[2] = target: T1, Organic cation/carnitine transporter 2; test: TP_TRANSPORTER: uptake in OCTN2-expressing HEK293 cells
[3] = target: T1, Organic cation/carnitine transporter 2; test: TP_TRANSPORTER: inhibition of Carnitine uptake (Carnitine: 0.010? uM, PAH: 500 uM) in OCTN2-expressing HEK293 cells; conditions: hek293, 500 µM
[4] = target: T1, Organic cation/carnitine transporter 2; test: TP_TRANSPORTER: inhibition of Carnitine uptake (Carnitine: 0.010? uM, alphaKG: 500 uM) in OCTN2-expressing HEK293 cells; conditions: hek293, 500 µM
[5] = target: T1, Organic cation/carnitine transporter 2; test: TP_TRANSPORTER: inhibition of Carnitine uptake (Carnitine: 0.010? uM, Norfloxacin: 500 uM) in OCTN2-expressing HEK293 cells; conditions: hek293, 500 µM
[6] = target: T1, Organic cation/carnitine transporter 2; test: TP_TRANSPORTER: inhibition of Carnitine uptake (Carnitine: 0.010? uM, SPLX: 500 uM) in OCTN2-expressing HEK293 cells; conditions: hek293, 500 µM
[7] = target: T1, Organic cation/carnitine transporter 2; test: TP_TRANSPORTER: inhibition of Carnitine uptake (Carnitine: 0.010? uM, Pivalate: 500 uM) in OCTN2-expressing HEK293 cells; conditions: hek293, 500 µM

Structure (SMILES): CNC(=O)c1cccnc1 [NICOTINYL METHYLAMIDE]
- Activity [1]: is not an inhibitor [-]

Structure (SMILES): Nc1ccc(C(=O)NCC(=O)O)cc1 [AMINOHIPPURIC ACID]
- Activity [2]: is not a substrate [-]
- Activity [3]: is not an inhibitor [-]

Structure (SMILES): O=C(O)CCC(=O)C(=O)O [ALPHA-KETOGLUTARIC ACID]
- Activity [4]: is not an inhibitor [-]

Structure (SMILES): CCn1cc(C(=O)O)c(=O)c2cc(F)c(N3CCNCC3)cc21 [NORFLOXACIN]
- Activity [5]: is not an inhibitor [-]

Structure (SMILES): C[C@@H]1CN(c2c(F)c(N)c3c(=O)c(C(=O)O)cn(C4CC4)c3c2F)C[C@H](C)N1 [SPARFLOXACIN]
- Activity [6]: is not an inhibitor [-]

Structure (SMILES): CC(C)(C)C(=O)O [PIVALATE]
- Activity [7]: is not an inhibitor [-]
